Source: the supplement of paper PMC10307832

Key:
Apatinib = compound: N#CC1(c2ccc(NC(=O)c3cccnc3NCc3ccncc3)cc2)CCCC1 [Apatinib]; experiment: relative viability (nuclei count vs DMSO), 5 days (fraction); higher = more cells survive
Summary of the method: (§1)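 In 1536-well plates, lung cancer cell lines rested overnight at 37 °C before five library-drug doses (not always all listed), √10 apart, were pinned onto vehicle-anchored plates. Nuclei were counted with MetaXpress from 4× Hoechst images taken after 5 days without medium change. Viability compares treated-well with vehicle-well nuclei as a median over plates, and plates needed control CV below 25% plus at least one doubling to pass.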

Metformin = compound: CN(C)C(=N)NC(=N)N [Metformin]; experiment: as above
Summary of the method: as §1

Work on NCI-H460 yielded a relative viability (Apatinib; 0.08 µM) of 0.976, a relative viability (Apatinib; 0.253 µM) of 0.99 and a relative viability (Apatinib; 0.8 µM) of 0.963. It also gave a relative viability (Apatinib; 2.53 µM) of 0.925, a relative viability (Apatinib; 8 µM) of 0.93 and a relative viability (Metformin; 31.62 µM) of 1.01. It also gave a relative viability (Metformin; 100 µM) of 1, a relative viability (Metformin; 316.23 µM) of 0.976 and a relative viability (Metformin; 1000 µM) of 1.07.
